Measurements as given in patent US20260008862A1, “Bispecific Anti-BCMA x Anti-CD3 Antibodies and Uses Thereof” (Regeneron Pharmaceuticals, Inc., priority 2018, published 2026).

Tests used:
[1] = test system: MC38/BCMA tumors; assay: Syngenic MC38/BCMA tumor model in CD3-humanized mice (Example 16); assay type: in vivo, mouse
Procedure: To determine the in vivo efficacy of anti-BCMA×anti-CD3 bispecific antibodies (Abs), a syngenic tumor study was performed in mice expressing human CD3. C57BL/6 mice that express human CD3deg in place of murine CD3deg (CD3-humanized mice) were subcutaneously implanted with either 0.5×10^6 B16 melanoma cells that have been engineered to express full-length human BCMA (B16/BCMA cells) or 1×10^6 MC38 colon carcinoma cells that have been engineered to express full-length human BCMA (MC38/BCMA). […] The mice were administered these Abs twice more on days 4 and 7 for a total of three doses, and tumor growth was assessed throughout the experiment.
Implantation and measurement of syngenic tumors: C57BL/6 mice that express human CD3deg in place of murine CD3deg (CD3-humanized mice) were subcutaneously implanted with either 0.5×10^6 B16F10 melanoma cells that have been engineered to express full-length human BCMA (B16/BCMA cells) or 1×10^6 MC38 colon carcinoma cells that have been engineered to express full-length human BCMA (MC38/BCMA). […] The mice were administered these Abs twice more on days 4 and 7 for a total of three doses, and tumor growth was assessed throughout the experiment.
Calculation of syngenic tumor growth and inhibition: In order to determine tumor volume by external caliper, the greatest longitudinal diameter (length in mm) and the greatest transverse diameter (width in mm) were determined. Tumor volumes based on caliper measurements were calculated by the formula: Volume (mm^3)=(length×width^2)/2.

[2] = molecular target: T1, surface BCMA on MM cell lines (Homo sapiens, UniProt Q02223); assay: FACS surface BCMA after overnight incubation, MM cell lines overall; assay type: cell-based; conditions: 66.7 or 667 nM
T1 construct: human cell lines which express endogenous BCMA (e.g., NCI-H929, MOLP-8 or OMP-2); endogenous in cells; host or cells: multiple myeloma cell lines H929, Molp8, U266, MM1.S
T1 sequence (Q02223 1-184): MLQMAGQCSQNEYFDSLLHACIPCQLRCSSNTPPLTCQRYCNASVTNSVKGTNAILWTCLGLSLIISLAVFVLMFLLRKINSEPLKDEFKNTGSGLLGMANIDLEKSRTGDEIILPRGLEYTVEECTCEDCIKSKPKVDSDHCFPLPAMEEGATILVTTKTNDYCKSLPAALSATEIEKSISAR
Procedure: Flow cytometric analysis was utilized to determine the impact of overnight incubation of multiple myeloma cell lines with anti-BCMA antibodies on the level of surface BCMA. […] After 18 hours, wells were washed with cold FACS wash (PBS+1% filtered FBS) and resuspended in 667 nM of the same anti-BCMA antibody in cold stain buffer (Miltenyi 130-091-221) for 30 minutes on ice. After incubation, the cells were washed twice with cold FACS wash (PBS+1% filtered FBS) and bound antibody was detected by incubating with the appropriate anti-human secondary antibody (anti-hIgG or anti-HIS) on ice for an additional 30-45 minutes. After incubation, cells were washed, re-suspended in 200 μL cold PBS containing 1% filtered FBS and analyzed by flow cytometry on a BD FACS Canto II. Fold increase in staining was calculated by dividing the MFI of stained cells previously incubated overnight in BCMA abs or DAPT by the MFI of stained cells that were incubated overnight in media only.

[3] = test system: BCMA+ MOLP-8-luciferase tumors; assay: MOLP-8-luciferase intravenous xenogenic tumor model, BLI (Example 14); assay type: in vivo, mouse; conditions: 4 mg/kg on days 0, 3 and 7
Procedure: To determine the in vivo efficacy of anti-BCMA×anti-CD3 bispecific antibodies (Abs), a xenogenic tumor study was performed. On day −11, immunodeficient NOD.Cg-Prkdc^scidIl2rg^tm1Wji/SzJ (NSG) mice were intraperitoneally injected with 4×10^6 human peripheral blood mononuclear cells (PBMC) from a normal, healthy donor. On day 0, the mice were intravenously administered 2×10^6 BCMA^+ MOLP-8 human multiple myeloma tumor cells that were engineered to also express firefly luciferase (MOLP-8-luciferase cells). […] The mice were administered these Abs twice more on days 3 and 7, for a total of three doses. Tumor growth was assessed over 48 days by measuring tumor bioluminescence (BLI) in anesthetized animals. As a positive control, a group of mice (n=5) was given only MOLP-8-luciferase cells, but not PBMC or antibody.
Implantation and measurement of xenogenic tumors: On day −11, immunodeficient NOD.Cg-Prkdc^scidIl2rg^tm1Wji/SzJ (NSG) mice were intraperitoneally injected with 5×10^6 human PBMC from a normal, healthy donor. […] Tumor growth was assessed over 48 days by measuring tumor BLI in anesthetized animals. […]
Measurement of xenogenic tumor growth: BLI imaging was used to measure tumor burden. […] Image acquisition was carried out with the field of view at D, subject height of 1.5 cm, and medium binning level with automatic exposure time determined by the Living Image Software. […]

REGN5458: anti-BCMA×anti-CD3 bispecific antibody: BCMA HCVR of mAb21581 (SEQ 66), CD3 HCVR of mAb7221G (SEQ 90), common LCVR SEQ 82
Average Tumor Size (mm3) ± SEM on Day 5 ([1]; MC38/BCMA Tumor, 0.04 mg/kg, Day 5): 11.9 ± 2.9 mm3 | Average Tumor Size (mm3) ± SEM on Day 10 ([1]; MC38/BCMA Tumor, 0.04 mg/kg): 66.7 ± 22.5 mm3 | Average Tumor Size (mm3) ± SEM on Day 14 ([1]; MC38/BCMA Tumor, 0.04 mg/kg): 273.3 ± 115.3 mm3 | Average Tumor Size (mm3) ± SEM on Day 18 ([1]; MC38/BCMA Tumor, 0.04 mg/kg): 641.5 ± 309.8 mm3 | Average Tumor Size (mm3) ± SEM on Day 10 ([1]; MC38/BCMA Tumor, 0.4 mg/kg): 0.0 ± 0.0 mm3 | Average Tumor Size (mm3) ± SEM on Day 14 ([1]; MC38/BCMA Tumor, 0.4 mg/kg): 2.9 ± 2.9 mm3 | Average Tumor Size (mm3) ± SEM on Day 18 ([1]; MC38/BCMA Tumor, 0.4 mg/kg): 7.5 ± 7.5 mm3 | tumor growth (in words) ([1]; MC38/BCMA, 0.4 or 0.04 mg/kg, three doses): suppress the growth of both tumor lines in a dose-dependent manner | surface BCMA after overnight incubation (in words) [2]: increased levels of surface BCMA | tumor growth (in words) [3]: delayed the growth
